According to article PMC9775409, “Identification, Screening, and Comprehensive Evaluation of Novel DPP-IV Inhibitory Peptides from the Tilapia Skin Gelatin Hydrolysate Produced Using Ginger Protease” (Biomolecules, 2022):
Where two headings read alike, the source gives them in different places. Non-standard residues stand in square brackets, D forms with d. Residues, ends and D or L forms follow the SMILES beside them. No end group written: not given here. Hyp = O=C(O)[C@@H]1C[C@@H](O)CN1

Legend:
[1] = Oral administration in rats, LC-MS/MS identification of peptides in plasma; settings: for Identification in rat plasma, 0.5 h: 0.5 h after oral administration of GPXGPPGPGP; for Identification in rat plasma, 0.5 h / Identification in rat plasma, 1 h: blood from abdominal aorta, ethanol protein precipitation; for Identification in rat plasma, 1 h: 1 h after oral administration of GPXGPPGPGP; for Identified in plasma at 0.5 h: rat plasma 0.5 h after oral administration of GPXGPPGPGP; for Identified in plasma at 0.5 h / Identified in plasma at 1 h: in words; for Identified in plasma at 1 h: rat plasma 1 h after oral administration of GPXGPPGPGP
Caco-2 cell monolayer = settings: cited from earlier work
DPP-IV = system: DPP-IV; design: method as in PMID 24650211; settings: in words; cited from earlier work
[2] = in vivo, po

| Identification in rat plasma, 0.5 h [1] | Identification in rat plasma, 1 h [1] | Identified in plasma at 0.5 h [1] | Identified in plasma at 1 h [1] | Identification in rat plasma, 0.5 h [2] | Identification in rat plasma, 1 h [2] | Identified in plasma at 1 h ([2]; rat) | Molecule | Passage through the Caco-2 cell monolayer (Caco-2 cell monolayer) | Inhibitory effect against DPP-IV (DPP-IV) |
| --- | --- | --- | --- | --- | --- | --- | --- | --- | --- |
| + | − | identified in plasma at 0.5 h | not at 1 h |  |  |  | O=C(O)CNC(=O)[C@@H]1C[C@@H](O)CN1C(=O)[C@@H]1CCCN1 [PXG, Pro-Hyp-Gly] (H-Pro-[Hyp]-Gly-OH) |  |  |
|  |  |  |  |  |  |  | GA[Hyp]GL[Hyp]GP | pass through the Caco-2 cell monolayer by paracellular diffusion |  |
| + | − | identified in plasma at 0.5 h | not at 1 h |  |  |  | O=C(O)[C@@H]1C[C@@H](O)CN1C(=O)[C@@H]1CCCN1 [PX, Pro-Hyp] (H-Pro-[Hyp]-OH) |  | not inhibitory against DPP-IV |
|  |  |  |  | + | − | not at 1 h | NCC(=O)N1CCC[C@H]1C(=O)N1C[C@H](O)C[C@H]1C(=O)O [GPX, Gly-Pro-Hyp] (H-Gly-Pro-[Hyp]-OH) |  | inhibitory effect against DPP-IV |
